The text below walks through data of ChEMBL document CHEMBL4130396, “Bistinospinosides A and B, Dimeric Clerodane Diterpene Glycosides from Tinospora sagittata” (J Nat Prod, 2017).

Positions of bridges follow the written chain, without caps; N, C: chain ends. Non-standard residues stand in square brackets, D forms with d. Residues, ends and D or L forms follow the SMILES beside them. *: point of attachment. X1 = CC[C@H](C)CCCCC(=O)*; Dab = NCC[C@H](N)C(=O)O

For this test, the system named is J774.1. The test is described as follows: Antiinflammatory activity in mouse J774.1 cells assessed as inhibition of LPS/[…]-induced NO production after 48 hrs by Griess assay. Type of test: functional, cell-based. The conditions noted are these: J774.1, 48 h.
Broadly, the IC50 is the concentration needed to halve the response being measured. Take `C[C@@]12C[C@@H](C3=C[C@@H]4O[C@H]3[C@H]3[C@H]5OC(=O)[C@@](O[C@@H]6O[C@H](CO)[C@@H](O)[C@H](O)[C@H]6O)([C@H]34)[C@]3(C)CC[C@H]4C(=O)O[C@H](c6ccoc6)C[C@@]4(C)[C@H]53)OC(=O)[C@@H]1CC[C@]1(C)[C@H]2[C@H]2C=C[C@]1(O[C@@H]1O[C@H](CO)[C@@H](O)[C@H](O)[C@H]1O)C(=O)O2`: the concentration for half-maximal inhibition (IC50) is more than 50 µM.
The value for `C[C@@]12C[C@@H](C3=C[C@H]4O[C@@H]3[C@H]3[C@@H]4[C@H]4OC(=O)[C@]3(O[C@@H]3O[C@H](CO)[C@@H](O)[C@H](O)[C@H]3O)[C@]3(C)CC[C@H]5C(=O)O[C@H](c6ccoc6)C[C@@]5(C)[C@H]43)OC(=O)[C@@H]1CC[C@]1(C)[C@H]2[C@H]2C=C[C@]1(O[C@@H]1O[C@H](CO)[C@@H](O)[C@H](O)[C@H]1O)C(=O)O2` was more than 50 µM; that for `CC[C@H](C)CCCCC(=O)N[C@@H](CCN)C(=O)N[C@H](C(=O)N[C@@H](CCN)C(=O)N[C@H]1CCNC(=O)[C@H]([C@@H](C)O)NC(=O)[C@H](CCN)NC(=O)[C@H](CCN)NC(=O)[C@H](CC(C)C)NC(=O)[C@@H](Cc2ccccc2)NC(=O)[C@H](CCN)NC1=O)[C@@H](C)O` (X1-[Dab]T[Dab][Dab][Dab][dF]L[Dab][Dab]T; lactam 4-C) was 8.5 µM.
